This data set in a line: In vitro (pH stability) assay: intramolecular cyclization-release of capsaicin from the prodrug in buffer. Format: physicochemical. The following applies: for stability at pH 4.5 at room temperature in comparison to the non-acylated prodrug (compound 6): pH 4.5, RT. How it is done: The compounds described herein are examples of pH activated prodrugs whereby upon exposure to a specific pH, the half-life of the intramolecular cyclization-release reaction is determined. The intramolecular cyclization-release reaction results in the concomitant formation of a cyclic urea with the release of the parent drug.
Compounds were incubated in the buffer/biological media indicated. The reactions were conducted at either room temperature or 37° C. In some embodiments, additional common ingredients/formulations which may be used in buffers for the testing of the cyclization-release of the compounds described herein include but are not limited to: N-(2-Acetamido)-2-aminoethanesulfonic acid, N-(2-Acetamido)iminodiacetic acid, 2-Amino-2-methyl-1,3-propanediol, salts of bicarbonate, N,N-Bis(2-hydroxyethyl)glycine, 2-Bis(2-hydroxyethyl)amino-2-(hydroxymethyl)-1,3-propanediol, 3-(Cyclohexylamino)-1-propanesulfonic acid, 2-(Cyclohexylamino)ethanesulfonic acid, salts of carbonate, salts of citrate, 4-(2-Hydroxyethyl)-1-piperazinepropanesulfonic acid, salts of glycine, salts of Glycyl-glycine, 4-(2-Hydroxyethyl)piperazine-1-ethanesulfonic acid, 4-Morpholineethanesulfonic acid, 4-Morpholinepropanesulfonic acid, 1,4-Piperazinediethanesulfonic acid, salts of phosphate, salts of tartrate, 2-[(2-Hydroxy-1,1-bis(hydroxymethyl)ethyl)amino]ethanesulfonic acid, Tris(2-hydroxyethyl)amine, and salts of EDTA.
Samples were collected at specific time points, quenched with a 1.0% TFA in acetonitrile solution to stop the cyclization-release reaction and analyzed by HPLC for formation of released capsaicin, cyclic urea by-product, and consumption of starting compound in plasma and cerebrospinal fluid (CSF).

Where [1] appears, read: buffer (simulated physiological conditions), simulated physiological conditions, pH 7.4 & 37° C., read-out: half-life of conversion to capsaicin.
Setting [2] is: pH = 4.5 (0.1M aqueous sodium acetate buffer), RT, read-out: Intramolecular Cyclization-Release Half-life (T1/2) at pH 4.5 & RT (converted).
The mark [3] stands for this setting: pH = 7.4 (0.2M aqueous tris buffer), 37° C., read-out: Intramolecular Cyclization-Release Half-life (T1/2) at pH 7.4 & 37° C.

Like-named read-outs stand apart in the source and are kept apart here.

Results on 8 compounds are retold here after patent US20220112165A1, “PEGYLATED PRODRUGS OF PHENOLIC TRPV1 AGONISTS” (priority 2018, published 2022).

As to `CNCC1CN(C(=O)CCOCCOCCOCCOC)CCN1C(=O)Oc1ccc(CNC(=O)CCCC/C=C/C(C)C)cc1OC` (stereo not drawn) [Compound 1, (E)-2-methoxy-4-((8-methylnon-6-enamido)methyl)phenyl 2-((methylamino)methyl)-4-(2,5,8,11-tetraoxatetradecan-14-oyl)piperazine-1-carboxylate], the “stability at pH 4.5 at room temperature in comparison to the non-acylated prodrug (compound 6)” value was “significant and unexpected increase in stability”. In addition, the half-life under setting [1] is less than 5 min. Also, the half-life under setting [2] is 2600 min. Besides, the half-life under setting [3] is approximately 0.8 min.

In the case of `CNCC1CN(C(=O)CCOCCOCCOCCOCCOCCOCCOC)CCN1C(=O)Oc1ccc(CNC(=O)CCCC/C=C/C(C)C)cc1OC` (stereo not drawn) [Compound 2, (E)-2-methoxy-4-((8-methylnon-6-enamido)methyl)phenyl 2-((methylamino)methyl)-4-(2,5,8,11,14,17,20-heptaoxatricosan-23-oyl)piperazine-1-carboxylate], the “stability at pH 4.5 at room temperature in comparison to the non-acylated prodrug (compound 6)” value is “significant and unexpected increase in stability”. Under setting [1], the half-life was less than 5 min. Moreover, the half-life under setting [2] is 2450 min. Moreover, the half-life under setting [3] was approximately 0.7 min.

`CNCC1CN(C(=O)CCOCCOCCOCCOCCOCCOCCOCCOCCOCCOC)CCN1C(=O)Oc1ccc(CNC(=O)CCCC/C=C/C(C)C)cc1OC` (stereo not drawn) [Compound 3, (E)-2-methoxy-4-((8-methylnon-6-enamido)methyl)phenyl 4-(2,5,8,11,14,17,20,23,26,29-decaoxadotriacontan-32-oyl)-2-((methylamino)methyl)piperazine-1-carboxylate]: the “stability at pH 4.5 at room temperature in comparison to the non-acylated prodrug (compound 6)” value was “significant and unexpected increase in stability”. The half-life under setting [1] is less than 5 min. Further, under setting [2], the half-life is 3060 min. Besides, the half-life under setting [3] is approximately 0.8 min.

As for `CNCC1CN(C(=O)CCOCCOCCOCCOCCOCCOCCOCCOCCOCCOCCOCCOCCOC)CCN1C(=O)Oc1ccc(CNC(=O)CCCC/C=C/C(C)C)cc1OC` (stereo not drawn) [Compound 4, (E)-2-methoxy-4-((8-methylnon-6-enamido)methyl)phenyl 4-(2,5,8,11,14,17,20,23,26,29,32,35,38-tridecaoxahentetracontan-41-oyl)-2-((methylamino)methyl)piperazine-1-carboxylate], the half-life is, setting by setting: under setting [1], less than 5 min; under setting [3], approximately 0.6 min.

For `CNCC1CNCCN1C(=O)Oc1ccc(CNC(=O)CCCC/C=C/C(C)C)cc1OC` (stereo not drawn) [Compound 5], the half-life under setting [1] was less than 5 min and the half-life under setting [3] is approximately 0.4 min.

For the compound `CNCC1CN(C)CCN1C(=O)Oc1ccc(CNC(=O)CCCC/C=C/C(C)C)cc1OC` (stereo not drawn) [Compound 6, (E)-2-methoxy-4-((8-methylnon-6-enamido)methyl)phenyl 4-methyl-2-((methylamino)methyl)piperazine-1-carboxylate], the half-life reads like this: under setting [1], less than 5 min; under setting [2], 78 min; under setting [3], approximately 0.8 min.

As for `CNCC1CN(C(C)=O)CCN1C(=O)Oc1ccc(CNC(=O)CCCC/C=C/C(C)C)cc1OC` (stereo not drawn) [Compound 7, (E)-2-methoxy-4-((8-methylnon-6-enamido)methyl)phenyl 4-acetyl-2-((methylamino)methyl)piperazine-1-carboxylate], the “stability at pH 4.5 at room temperature in comparison to the non-acylated prodrug (compound 6)” value is “significant and unexpected increase in stability”. The half-life under setting [1] is less than 5 min. In addition, the half-life under setting [2] was 6930 min. For the same compound, the half-life under setting [3] is approximately 0.9 min.

Regarding `CCOC(=O)N1CCN(C(=O)Oc2ccc(CNC(=O)CCCC/C=C/C(C)C)cc2OC)C(CNC)C1` (stereo not drawn) [Compound 8, (E)-4-ethyll-(2-methoxy-4-((8-methylnon-6-enamido)methyl)phenyl) 2-((methylamino)methyl)piperazine-1,4-dicarboxylate], the “stability at pH 4.5 at room temperature in comparison to the non-acylated prodrug (compound 6)” value was “significant and unexpected increase in stability”. In addition, the half-life under setting [1] is less than 5 min. For the same compound, the half-life under setting [2] was 2770 min. For the same compound, the half-life under setting [3] was approximately 1.3 min.
